Assay results as given in US7794835B2, “Fixing solution, capsule structure, fixing method, fixing device and image forming apparatus” (Ricoh Company, Ltd., priority 2004, dated 2010).

Assay: acute oral toxicity test LD50 (50 percent lethal dose)
Type: in vivo, rats or guinea pigs
Details: worked out from LD50 in oral administration
Text: A fixing solution according to the present invention includes aliphatic ester, held in a soluble state with respect to a solvent and having solubility or a swelling property with respect to a resin included in a toner. Thereby, a fixing solution, from which generation of odor is reduced, and by which a not-yet-fixed toner can be rapidly fixed, can be obtained. The aliphatic ester is applied as a softener softening a toner by dissolving or swelling the resin included in the toner. ‘Held in a soluble state’ means as being held in a size on the order of a molecule size on the order of […]. The aliphatic ester preferably has acute oral toxicity test LD50 larger than 3 g/kg in a viewpoint of a safety of humans.
For the first problem, LD50 is applied as a safety index, and a fixing solution was produced in such a manner that each of a solvent and a solute has LD50 not less than 3.0 g/kg. LD50 is a toxicity index of American Industrial Hygiene Association, and means a 50 percent lethal dose. This corresponds to an amount such that, 50% of the number of individuals are dead when a certain amount of test solute or a sample to test is given to rats or guinea pigs. […] Since this means that a 50% lethal dose for a weight of individuals of 1 kg is not less than 15 g, a presumable lethal dose of silicone oil for a human of 65 kg is not less than […] accordingly. […]
For dimethylsiloxane, the “presumable lethal dose for a human of 65 kg” value was “not less than 945 g”.

Assay: not given
Details: acute oral toxicity; cited from earlier work
For `CCOCCOC(=O)CCC(=O)OCCOCC` [diethoxy ethyl succinate], the LD50 is given as 5000 mg/kg. In the case of `CCO` [ethanol], the LD50 is given as 20000 mg/kg. For `CCCCCCCCCCCC(=O)OCCCCCC` [hexyl laureate], the LD50 is listed as 8000 mg/kg. In the case of `CCCCCCCCCCCCCCCC(=O)OCC(C)C` [isobutyl palmitate, reference compound], the LD50 is listed as 8000 mg/kg. In the case of `CCCCCCCCCCCCCCCC(=O)OC(C)C` [isopropyl palmitate, reference compound], the LD50 is listed as 8000 mg/kg. In the case of `CCCCCCCCCCCCCC(=O)OC(C)C` [isopropylmyristate], the LD50 is listed as 8000 mg/kg. In the case of `CCCCCCCC(=O)OC` [methylcaprylate, reference compound], the LD50 is given as 3000 mg/kg. For `CCCCCCCCCCCC` [n-dodecane], the LD50 is listed as 20000 mg/kg. In the case of `CCCCCC` [n-hexane], the LD50 is given as 28700 mg/kg. In the case of `[Cl-].[Na+]` [salt, reference compound], the LD50 is listed as 3000 mg/kg.

Same assay, conditions: acute oral toxicity; listed as dimethyl silicone oil; cited from earlier work
In the case of dimethylsiloxane, the LD50 is given as “not less than 15 g/kg”.
